Experimental data as given in patent publication US10081601B2, “Glucocerebrosidase modulators and uses thereof” (Alectos Therapeutics Inc., priority 2013, dated 2018).

Target: GCase enzyme (Cerezyme®, recombinant human GCase) (Homo sapiens, UniProt P04062, R534H)
Conditions: read-out: GCase Ki; from IC50 by Cheng-Prusoff equation, GCase Km 7.9 mM, pH 7.0

Chain of GCase enzyme (Cerezyme®, recombinant human GCase) (P04062 40-536 R534H limits assumed): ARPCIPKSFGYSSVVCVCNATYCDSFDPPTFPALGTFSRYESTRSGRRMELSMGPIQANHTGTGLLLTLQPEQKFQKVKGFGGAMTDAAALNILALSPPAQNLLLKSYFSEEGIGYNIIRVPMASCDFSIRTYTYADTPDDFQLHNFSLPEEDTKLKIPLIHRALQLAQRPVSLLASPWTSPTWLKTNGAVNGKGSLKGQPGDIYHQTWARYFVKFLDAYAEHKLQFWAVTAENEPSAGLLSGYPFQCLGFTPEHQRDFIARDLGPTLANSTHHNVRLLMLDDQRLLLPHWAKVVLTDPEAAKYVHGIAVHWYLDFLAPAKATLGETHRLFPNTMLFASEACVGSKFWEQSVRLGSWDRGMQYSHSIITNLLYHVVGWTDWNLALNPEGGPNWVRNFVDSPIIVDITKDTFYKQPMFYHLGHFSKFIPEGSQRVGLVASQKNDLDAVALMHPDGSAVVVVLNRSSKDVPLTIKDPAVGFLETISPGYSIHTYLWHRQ

Ki [nM] | SMILES
2.6 | C[C@@H]1[C@@H](O)[C@H](O)CNC12CC2 [Example 1, (6R,7R,8S)-8-methyl-4-azaspiro[2.5]octane-6,7-diol]
8 | O[C@H]1[C@H](O)CNC2(CC2)[C@@H]1C(F)F [Example 4, (6R,7R,8S)-8-(difluoromethyl)-4-azaspiro[2.5]octane-6,7-diol]
